Test results as given in the supplement of paper PMC11061612.

Key:
[1] = compound: CC(=O)Nc1cccc(-n2c(=O)n(C3CC3)c(=O)c3c(Nc4ccc(I)cc4F)n(C)c(=O)c(C)c32)c1 [Trametinib]; conditions: max 1 µM
How it was run: (§1)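 Viability was measured with CellTiter-Glo 2.0 luminescence after 72 hours of dosing at a final DMSO of typically 0.2%, and scaled between blank-well and DMSO-well means. Beforehand, cancer cell lines sat 24 hours at 37°C and 5% CO2 in 1536-well plates in 7.5 μl DMEM/F12 or RPMI with 10% FBS. A non-linear mixed effects model fitted two-parameter logistic curves to the dose responses. The single-agent IC50 comes from these fits.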

[2] = compound: Cc1c2c(nn1C)CSCc1cc(n(C)n1)CSc1cc(c3ccccc3c1)OCCCc1c(C(=O)O)n(C)c3c-2c(Cl)ccc13 [AZD5991]; conditions: max 1 µM
How it was run: as §1

[3] = compound: Cn1cnc2c(F)c(Nc3ccc(Br)cc3Cl)c(C(=O)NOCCO)cc21 [Selumetinib]; conditions: max 10 µM
How it was run: as §1

[4] = compound: CC(C)n1c(=O)n(C)c2cnc3cc(F)c(-c4ccc(OCCCN5CCCCC5)nc4)cc3c21 [AZD1390]; conditions: max 0.3 µM
How it was run: as §1

[5] = compound: Cc1nc(-c2cn3c(n2)-c2ccc(-c4cnn(C(C)(C)C(N)=O)c4)cc2OCC3)n(C(C)C)n1 [Taselisib]; conditions: max 10 µM
How it was run: as §1

[6] = compound: COc1cc2ncnc(Nc3ccc(F)c(Cl)c3)c2cc1OCCCN1CCOCC1 [Gefitinib]; conditions: max 10 µM
How it was run: as §1

[7] = compound: CCN(CCO)CCCOc1ccc2c(Nc3cc(CC(=O)Nc4cccc(F)c4)[nH]n3)ncnc2c1 [AZD2811]; conditions: max 1 µM
How it was run: as §1

[8] = compound: C1CN(CCC1(C(=O)N[C@@H](CCO)C2=CC=C(C=C2)Cl)N)C3=NC=NC4=C3C=CN4 [Capivasertib]; conditions: max 10 µM
How it was run: as §1

[9] = compound: CC1=CN2[C@@H](C1)C=NC3=CC(=C(C=C3C2=O)OC)OCCCCCOC4=C(C=C5C(=C4)N=C[C@@H]6CC(=CN6C5=O)C)OC [SG3199]; conditions: max 0.001 µM
How it was run: as §1

[10] = compound: O=C(c1cc(Cc2n[nH]c(=O)c3ccccc23)ccc1F)N1CCN(C(=O)C2CC2)CC1 [Olaparib]; conditions: max 10 µM
How it was run: as §1

[11] = compound: Cc1cc2ncnn2cc1Nc1ncc2c(n1)n(C1CCOCC1)c(=O)n2C [AZD7648]; conditions: max 10 µM
How it was run: as §1

[12] = compound: COc1cc(Nc2ncc3c(n2)-c2ccc(Cl)cc2C(c2c(F)cccc2OC)=NC3)ccc1C(=O)O [Alisertib]; conditions: max 10 µM
How it was run: as §1

[13] = compound: CC1(C)CCC(CN2CCN(c3ccc(C(=O)NS(=O)(=O)c4ccc(NCC5CCOCC5)c([N+](=O)[O-])c4)c(Oc4cnc5[nH]ccc5c4)c3)CC2)=C(c2ccc(Cl)cc2)C1 [Venetoclax]; conditions: max 1 µM
How it was run: as §1

[14] = compound: COc1nnc2ccc(N3CCC(c4ccc(OCCN5CCN(C)C(=O)[C@H]5C)cc4)CC3)nn12 [AZD5153]; conditions: max 1 µM
How it was run: as §1

[15] = compound: CCc1c2c(nc3ccc(O)cc13)-c1cc3c(c(=O)n1C2)COC(=O)[C@]3(O)CC [SN-38]; conditions: max 0.3 µM
How it was run: as §1

[16] = compound: COc1cccc2c1C(=O)c1c(O)c3c(c(O)c1C2=O)C[C@@](O)(C(=O)CO)C[C@@H]3O[C@H]1C[C@H](N)[C@H](O)[C@H](C)O1 [Doxorubicin]; conditions: max 1 µM
How it was run: as §1

[17] = compound: C[C@@H](c1ccc2nccn2c1)n1nnc2ncc(-c3cnn(C)c3)nc21 [Savolitinib]; conditions: max 1 µM
How it was run: as §1

[18] = compound: CN(CC[C@H](CSC1=CC=CC=C1)NC2=C(C=C(C=C2)S(=O)(=O)NC(=O)C3=CC=C(C=C3)N4CCC(CC4)[C@H](C5=CC=CC=C5C6=CC=C(C=C6)Cl)O)S(=O)(=O)C(F)(F)F)CCO [AZD4320]; conditions: max 1 µM
How it was run: as §1

[19] = compound: C[C@@H]1COCCN1C2=NC(=NC(=C2)C3(CC3)[S@](=N)(=O)C)C4=C5C=CNC5=NC=C4 [AZD6738]; conditions: max 10 µM
How it was run: as §1

[20] = compound: C[C@@H](Nc1cc(F)cc(F)c1)c1cc(C(=O)N(C)C)cc2c(=O)cc(N3CCOCC3)oc12 [AZD8186]; conditions: max 3 µM
How it was run: as §1

[21] = compound: C[C@@H](Oc1cc(-c2cnn(C3CCNCC3)c2)cnc1N)c1c(Cl)ccc(F)c1Cl [Crizotinib]; conditions: max 10 µM
How it was run: as §1

[22] = compound: CC1=C(C(=CC=C1)Cl)NC(=O)C2=CN=C(S2)NC3=CC(=NC(=N3)C)N4CCN(CC4)CCO [Dasatinib]; conditions: max 2 µM
How it was run: as §1

[23] = compound: CN(C)CCCOc1ccc(-c2ccc3ncc4c(c3c2)n(C2CCOCC2)c(=O)n4C)cn1 [AZD0156]
How it was run: as §1

[24] = compound: C=CCn1c(=O)c2cnc(Nc3ccc(N4CCN(C)CC4)cc3)nc2n1-c1cccc(C(C)(C)O)n1 [AZD1775]
How it was run: as §1

[25] = compound: CS(=O)(=O)CCNCc1ccc(-c2ccc3ncnc(Nc4ccc(OCc5cccc(F)c5)c(Cl)c4)c3c2)o1 [Lapatinib]; conditions: max 10 µM
How it was run: as §1

[26] = compound: COc1cccc(OCCCN)c1-c1cc(Nc2cnc(C#N)cn2)n[nH]1 [Prexasertib]; conditions: max 1 µM
How it was run: as §1

[27] = compound: CC(=O)c1c(C)c2cnc(Nc3ccc(N4CCNCC4)cn3)nc2n(C2CCCC2)c1=O [Palbociclib]; conditions: max 10 µM
How it was run: as §1

| Cell Line | IC50, cell viability 72 h [1] [µM] | IC50, cell viability 72 h [2] [µM] | IC50, cell viability 72 h [3] [µM] | IC50, cell viability 72 h [4] [µM] | IC50, cell viability 72 h [5] [µM] | IC50, cell viability 72 h [6] [µM] | IC50, cell viability 72 h [7] [µM] | IC50, cell viability 72 h [8] [µM] | IC50, cell viability 72 h [9] [µM] | IC50, cell viability 72 h [10] [µM] | IC50, cell viability 72 h [11] [µM] | IC50, cell viability 72 h [12] [µM] | IC50, cell viability 72 h [13] [µM] | IC50, cell viability 72 h [14] [µM] | IC50, cell viability 72 h [15] [µM] | IC50, cell viability 72 h [16] [µM] | IC50, cell viability 72 h [17] [µM] | IC50, cell viability 72 h [18] [µM] | IC50, cell viability 72 h [19] [µM] | IC50, cell viability 72 h [20] [µM] | IC50, cell viability 72 h [21] [µM] | IC50, cell viability 72 h [22] [µM] | IC50, cell viability 72 h ([23]; max 3 µM) [µM] | IC50, cell viability 72 h ([24]; max 3 µM) [µM] | IC50, cell viability 72 h [25] [µM] | IC50, cell viability 72 h [26] [µM] | IC50, cell viability 72 h [27] [µM] | IC50, cell viability 72 h ([23]; max 1 µM) [µM] | IC50, cell viability 72 h ([24]; max 1 µM) [µM] |
| --- | --- | --- | --- | --- | --- | --- | --- | --- | --- | --- | --- | --- | --- | --- | --- | --- | --- | --- | --- | --- | --- | --- | --- | --- | --- | --- | --- | --- | --- |
| EBC-1 (Squamous Cell Lung Carcinoma) | 0.0239 | > 1 | 1.1 | > 0.3 | 5.25 | > 10 | > 1 | > 10 | > 0.001 | > 10 | > 10 | > 10 | > 1 | 0.0805 | 0.00358 | > 1 | 0.00407 | 0.585 | > 10 | > 3 | 0.059 | > 2 | > 3 | 2.94 | > 10 | 0.596 | > 10 | – | – |
| EMC-BAC-2 (Non-Small Cell Lung Carcinoma) | 0.198 | 0.873 | > 10 | > 0.3 | 2.32 | > 10 | > 1 | > 10 | > 0.001 | > 10 | > 10 | 5.48 | > 1 | 0.22 | 0.169 | 0.959 | > 1 | > 1 | > 10 | > 3 | > 10 | 0.995 | > 3 | > 3 | > 10 | > 1 | > 10 | – | – |
| EW-13 (Ewing's Sarcoma) | > 1 | > 1 | > 10 | > 0.3 | > 10 | > 10 | > 1 | > 10 | > 0.001 | > 10 | > 10 | > 10 | > 1 | > 1 | 0.00864 | 0.467 | > 1 | 0.27 | > 10 | > 3 | > 10 | > 2 | – | – | > 10 | 0.829 | > 10 | > 1 | > 1 |
| EW-18 (Ewing's Sarcoma) | > 1 | 0.06 | > 10 | > 0.3 | 1.24 | > 10 | 0.131 | 2.44 | > 0.001 | > 10 | > 10 | 0.853 | > 1 | 0.376 | 0.106 | > 1 | > 1 | 0.0454 | 3.99 | > 3 | 1.85 | > 2 | > 3 | 0.359 | > 10 | 0.0432 | > 10 | – | – |
